Reference: patent publication EP0179583A1, “A system for enhancing the water dissolution rate and solubility of poorly soluble drugs” (Merck & Co., Inc., priority 1984, dated 1986)

How the values were obtained:
Assay type in all cases: physicochemical
[1] = Dissolution of compressed tablets in water (Example 10); conditions: compressed tablets of ivermectin alone
Description: The dissolution of said tablets to yield a clear infinitely diluable aqueous solution of ivermectin is very rapid (15 minutes with gentle agitation).

[2] = Solubility in deionized distilled water (Example 14)
Description: A solution of 5% (50 mg/ml) w/v ivermectin is prepared by dissolving the product in Examples 1-5 and 7-9 in sufficient deionized distilled water. A mixture of an equivalent amount of ivermectin in deonized distilled water is only marginally soluble (1-4 mcg/ml). Therefore, the solubility of a poorly water soluble drug is enhanced (50,000 mcg/ml).

[3] = Dissolution rate, solution/adsorption products versus comparison (Example 11); conditions: added alone or dissolved in glycerol formal to an aqueous surfactant solution
From the text: 37 parts of each of the solutions produced in Examples 5 and 6 is dry blended with I part of Accurel powder (50-75% void space). This mixture is then blended with 12 parts of Cab-O-Sil to produce a dry free-flowing powder which may be used as such or tableted as in Example 10.

[4] = Dissolution of thermoplastic solids in deionized distilled water (Example 12); conditions: ivermectin into an aqueous solution of an equivalent amount of thermoplastic surfactant

With ivermectin the “time within which tablets do not dissolve or disintegrate” value [1] was over 3 days, the solubility [2] was 1 to 4 µg/mL and the “dissolution rates compared with the invention” value [3] was “less than those observed with the invention”. For the same substance, the “dissolution rate compared with the method of the invention” value [4] was “significantly slower”.
